From PubChem BioAssay AID179 (DTP/NCI, 2004)
Values joined by “and” are separate entries in the source; they are usually repeats but may differ in a detail not shown here. Equal values may be shown once. Active and inactive are the calls of the source.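 The calls were made as follows: active = compounds giving half or more protection of infected cells from virus-caused growth loss, again on retest; inactive = the rest.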

Test system: CEM cells HIV-1 protection, formazan growth assay
Assay: NCI AIDS Antiviral Assay
Conditions: for IC50: measured here: growth of uninfected CEM cells
In short: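 Soluble formazan readout of cell growth; CEM cells ± HIV-1; 5 drug concs. ≥50% protection → retest; ≥50% again = moderately active; reproducible 100% = confirmed active.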

SMILES | EC50 | IC50 | outcome
O=[N+]([O-])c1ccc([As](=O)(O)O)cc1 | > 200 µM | > 200 µM | –
CN1C(=O)OC2OC(C)(c3ccc(S(=O)(=O)c4ccccc4)cc3)C(=O)CC21 (configuration not stated) | > 123 µM | > 123 µM | –
NNC(=O)N/N=C1\C(=O)N(c2ccc(Cl)c(Cl)c2)C(=O)C(=O)C1c1nc2ccccc2s1 (configuration not stated) | – | – | inactive
Cn1c(=O)cc(O)c2ccccc21 | > 200 µM | > 200 µM | –
COc1cccc(C2c3cc4c(cc3OC(N3CCCC3)C2C)OCO4)c1 (configuration not stated) | > 200 µM | 3.8 µM | –
Nc1nnnc2nc[nH]c12 | > 20 µM | 0.537 µM | –
CC1(C)CN=CC(C)(OCc2ccccc2)C(=O)NC(C)(C)CN=CC(C)(OCc2ccccc2)C(=O)N1 (configuration not stated) | > 7.24 µM | > 7.24 µM | –
CC(=O)OC12c3ccccc3C1CCCC21OCCCO1 (configuration not stated) | > 200 µM | > 200 µM | –
Cc1nccn1Cc1c(N)nc(N)[nH]c1=O | > 200 µM | > 200 µM | –
CN(C)CCNC(=O)c1cc([N+](=O)[O-])cn1C | > 200 µM | > 200 µM | –
O=C1C=C(O)c2ccccc2C1=O | > 200 µM | 120 µM | –
O=c1ccn(C2OC(CO)C(O)C2F)c(=O)n1Cc1ccccc1 (configuration not stated) | > 200 µM | > 200 µM | –
O=[N+]([O-])c1ccc(-c2cn3nc(-c4ccccc4)c(-c4ccccc4)nc3n2)cc1 | > 13.2 µM | > 13.2 µM | –
CCOC(=O)N1CCC2(CC1)C[C@@](C(C)=O)(c1ccccc1)C(C)O2 (some centres not stated) | > 200 µM | > 200 µM | –
N#Cc1ccsc1Nc1ccccc1[N+](=O)[O-] | 95.5 µM | > 200 µM | –
CC(C)C(NCc1c2ccccc2[n+]([O-])c2ccccc12)C(=O)O (configuration not stated) | – | – | inactive
OC(CNc1ccccn1)c1ccccc1 (configuration not stated) | > 200 µM | > 200 µM | –
O=[N+]([O-])c1ccc2c(c1)C(N1CCN(CCO)CC1)Cc1ccc(F)cc1S2 (configuration not stated) | > 200 µM | 22.4 µM | –
CN(CCNC(=O)c1cn(C)c2c1ccc1ccccc12)CCNC(=O)c1cn(C)c2c1ccc1ccccc12 | > 200 µM | 3.09 µM | –
COc1ccc2nc3n(c2c1)C(c1c(Cl)cccc1Cl)SC3 (configuration not stated) | > 200 µM | > 200 µM | –
CC1=CC2(O)OC3(CC2=C(C)C)C(C)CCC13 (configuration not stated) | > 200 µM | > 200 µM | –
CC(=O)OCC1OC(n2c(C)cc(-c3ccc(Cl)cc3)c(C#N)c2=S)C(OC(C)=O)C(OC(C)=O)C1OC(C)=O (configuration not stated) | > 200 µM | 30.2 µM | –

SMILES | EC50 | IC50 | outcome
COc1cc(C2C(Cl)C(=O)N2n2cnc3ccccc3c2=O)cc(OC)c1OC (configuration not stated) | > 6.61 µM | > 6.61 µM | –
CSCc1nc2ccccc2c(C)[n+]1[O-] | > 200 µM | > 200 µM | –
Nc1nc[n+](Cc2ccccc2)c2ncn(Cc3ccccc3)c12 | > 631 µM | 95.5 µM | –
CCOC(=O)N(c1ccccc1)N(CC)C(=O)/C(C)=N/Nc1ccc([N+](=O)[O-])cc1 | – | – | inactive
ClC1c2ccccc2-c2nsnc2C1Cl (configuration not stated) | > 28.2 µM | > 28.2 µM | –
CCC(C#N)NC(=O)NC(C#N)CC (configuration not stated) | > 200 µM | 107 µM | –
C=C1CN(S(=O)(=O)c2ccc([N+](=O)[O-])cc2)CC(=C)CN(S(=O)(=O)c2ccc([N+](=O)[O-])cc2)C1 | > 200 µM | > 200 µM | –
CC(=O)N1[C@H](C(=O)O)CS[C@H]1c1ccncc1 | – | – | inactive
COc1c(O)cc2c(c1O)C(=O)C1=C(CCCC1)C2=O | > 97.7 µM | 12.3 µM | –
CC1(C)C(OC(=O)c2ccccc2)C[C@]23CCC[C@](C)(C[C@@H](O)C12)C3 (some centres not stated) | > 200 µM | 24 µM | –
O=C1CNC(=O)c2c(ncn2C2OC(CO)C(O)C2O)N1 (configuration not stated) | > 214 µM | > 214 µM | –
C=C1C2CC[C@@H]3C(C2)(C(=O)C(O)[C@@H]2C(C)(C)[C@@H]4CC(=O)C32CO4)C1OC(C)=O (some centres not stated) | > 646 µM | 8.13 µM | –
COP1(=O)OCC(C)(C)CO1 | > 1380 µM | > 1380 µM | –
CC1CN=C(NS(=O)(=O)c2cc(C(=O)Nc3ccc(F)cc3)c(Cl)cc2S)NN1 (configuration not stated) | > 200 µM | 24 µM | –
Cc1c(NC(=O)C(C)(C)Br)c(=O)oc2c(C)c3occc(=O)c3cc12 | > 16.6 µM | > 16.6 µM | –
Cc1ccccc1N1C(=O)C(=O)c2cccc(C)c21 | > 200 µM | 33.1 µM | –
CCOC(=S)SCC(=O)c1cccc([N+](=O)[O-])c1 | – | – | inactive
O=C(O)C1(Cc2ccc3c(c2)CCC3)Cc2ccccc2C1 | > 200 µM | 81.3 µM | –
c1ccc(C2CCCNCC2)cc1 (configuration not stated) | – | – | inactive
S=C(N/N=C(/c1ccccc1)c1ccccn1)Nc1ccc(Cl)cc1 | > 0.2 µM | 0.123 µM | –
Cc1cc(=O)n2c(cc3cccccc32)n1 | – | – | inactive
C=C1CN2CCc3c([nH]c4ccccc34)C2CC1CC(=O)N(C)C (configuration not stated) | > 562 µM | 468 µM | –

SMILES | EC50 | IC50 | outcome
Nc1ccc(C(=O)NN2C(=O)C(Cl)C2c2cc(Br)ccc2O)cc1 (configuration not stated) | > 200 µM | 30.9 µM | –
CCn1c2c(n(CC)c1=S)-c1c(n(CC)c(=S)n1CC)SSSS2 | > 58.9 µM | > 58.9 µM | –
CNC1(C(=O)O)CC1 | > 200 µM | > 200 µM | –
CC1CN=C(N(C(=O)Nc2ccccc2)c2ccc(Cl)c(Cl)c2)S1 (configuration not stated) | > 200 µM | 138 µM | –
C1=Nc2ccc(cc2)N=Cc2ccc(cc2)OCc2cccc(n2)COc2ccc1cc2 | > 100 µM | > 100 µM | –
CC(C)(C)COc1ccc2c(c1)-c1nc-2nc2[nH]c(nc3nc(nc4[nH]c(n1)c1ccc(OCC(C)(C)C)cc41)-c1cc(OCC(C)(C)C)ccc1-3)c1ccc(OCC(C)(C)C)cc21 | > 8.32 µM | > 8.32 µM | –
CCOC(=O)/C(C#N)=C(O)/C(=C\c1ccc(Br)cc1)NC(=O)c1ccccc1 | > 562 µM | > 562 µM | –
CC1=NNC(=O)C1 | > 200 µM | 66.1 µM | –
Cc1ccc(S(=O)(=O)N2C[C@](O)(c3ccccc3)[C@H]2C)cc1 | > 200 µM | 195 µM | –
CC12CCC3(C1)[C@H](CC2=O)C[C@@H](OC(=O)c1ccccc1)C1C(C)(CO)CCC[C@@]13C (some centres not stated) | > 44.7 µM | 0.891 µM | –
OCc1nnn(-c2ccccc2)c1CO | > 200 µM | > 200 µM | –
CCN(CCCl)c1cc(C[N+](C)(C)[O-])cc(NC(=O)c2ccc(C(=O)Nc3cc(C[N+](C)(C)[O-])cc(N(CC)CCCl)c3)cc2)c1 | > 200 µM | 36.3 µM | –
CN(C)Cc1ccccc1CCO | > 200 µM | > 200 µM | –
C[C@H]1CC[C@@]2(OC1)O[C@H]1C[C@H]3[C@@H]4CC[C@@H]5C[C@@H](OC6OC(CO)C(O)C(O)C6OC6OC(CO)C(O)C(O)C6O)CC[C@]5(C)[C@H]4CC[C@]3(C)[C@H]1[C@@H]2C (some centres not stated) | > 200 µM | 5.25 µM | –
O=S(=O)(OCCCCOS(=O)(=O)c1ccc(Cl)c(Cl)c1)c1ccc(Cl)c(Cl)c1 | – | – | inactive
COc1ccc(C(C#N)NNC(=O)Cc2ccccc2)cc1OC (configuration not stated) | > 398 µM | 331 µM | –
CCOC(=O)c1nnsc1N/N=C\c1ccc([N+](=O)[O-])cc1 | > 200 µM | > 200 µM | –
Cc1ccc(S(=O)(=O)N/N=C2\C3CC4CC(C3)C2C4)cc1 (configuration not stated) | > 200 µM | 95.5 µM | –
CC(=O)O[C@]12CCC[C@H]1C1(O)C(O)CCC[C@H]12 (some centres not stated) | > 200 µM | > 200 µM | –
O=C1CSC(c2ccc(Cl)cc2)N1c1ccc(-n2c(-c3ccccc3)nc3ccccc3c2=O)cc1 (configuration not stated) | > 200 µM | 67.6 µM | –
CN1CCC(c2ccccc2)(c2ccccc2)C(O)C1 (configuration not stated) | – | – | inactive
COC(=O)c1ccccc1NC(=NC1CCCCCC1)NS(=O)(=O)c1ccc(C)cc1 | > 200 µM | > 200 µM | –

SMILES | EC50 | IC50 | outcome
CCOc1ccccc1-n1c(-c2ccc([N+](=O)[O-])cc2)csc1=NC(=O)c1cccc([N+](=O)[O-])c1 | > 200 µM | 186 µM | –
O=C(CCc1ccccc1)ON1C(=S)NC(c2ccccc2)(c2ccccc2)C1=S | > 200 µM | 33.1 µM | –
Cc1cc(C)c2nccc(NCCCN(C)C)c2c1[N+](=O)[O-] | > 200 µM | 42.7 µM | –
OC1c2ccccc2[C@@H]2[C@H]1[C@@H](c1ccccc1)C1(Cc3ccccc3C1O)[C@H]2c1ccccc1 (some centres not stated) | > 200 µM | 9.12 µM | –
Nc1ncnc2c1ncn2C1OC(COC2C(O)C(OC3OC(CO)C(O)C(O)C3N)C(O)C(OS(=O)(=O)O)C2OC(=O)[C@@H](N)CO)C(O)C1O (some centres not stated) | > 200 µM | > 200 µM | –
CC(=O)SCCCn1c(=O)n(CCCSC(C)=O)c(=O)n(CCCSC(C)=O)c1=O | > 200 µM | 12.3 µM | –
COc1cc(/C=C/C(=O)CC(=O)/C=C/c2ccc(O)c(OC)c2)ccc1O | > 200 µM | 19.1 µM and 75.9 µM | –
Cc1cc2c(C(C)C)c(O)c(O)c(C=Nc3ccccc3S)c2c(O)c1-c1c(C)cc2c(C(C)C)c(O)c(O)c(C=Nc3ccccc3S)c2c1O | > 200 µM | 16.2 µM | –
O=CN1CCN(C=O)C(O)C1O (configuration not stated) | > 200 µM | > 200 µM | –
CCC1(O)CCCC2C3CCC4CC(=O)CCC4(C)C3C(=O)CC21C (configuration not stated) | > 200 µM | 105 µM | –
CC(C)(C)[Si](C)(C)OCCOCn1cc(F)c(=O)[nH]c1=O | > 200 µM | > 200 µM | –
O=C(COc1ccc(Cl)cc1)N1N=C(c2ccc([N+](=O)[O-])o2)CC1(O)c1ccccc1 (configuration not stated) | > 16.2 µM | 2.88 µM | –
OCC1O[C@H](O[C@@H]2CCCN3CC(O)C(O)[C@@H]23)C(O)C(O)C1O (some centres not stated) | > 1580 µM | > 1580 µM | –
COc1ccc(-c2csc(=Nc3ccccc3)n2CC(O)c2ccc([N+](=O)[O-])cc2)cc1 (configuration not stated) | > 200 µM | 38 µM | –
Cc1c2c(c(C)c3c[n+](C)ccc13)Oc1ccccc1O2 | > 20 µM | 3.72 µM | –
CC(=O)N(C)c1ccc(/C=C2\C=Cc3ccccc32)cc1 | > 49 µM | 12.3 µM | –
COc1cc2c3cc1Oc1c(O)c(OC)cc4c1C(Cc1ccc(O)c(c1)Oc1ccc(cc1)CC3N(C)CC2)N(C)CC4 (configuration not stated) | – | – | inactive
Cc1cc(Cl)ccc1NC(=O)CCCC(=O)C1C/C(=N/O)CC/C1=N\O (configuration not stated) | > 95.5 µM | > 95.5 µM | –
O=C(CCc1nc(=S)[nH][nH]1)Nc1cccc(C(F)(F)F)c1 | > 22.9 µM | > 22.9 µM | –
CC(=O)NC(C(=O)O)(C(=O)O)C(C)CC(=O)O (configuration not stated) | > 200 µM | > 200 µM | –
